Assay results as given in the supplement of paper PMC12613149.

How the values were obtained:
[1] = reversed-phase LC retention time (C18, 15 min MeOH gradient); higher = more hydrophobic / later elution
[2] = collision cross section (TIMS, N2 drift gas) of the primary ion; higher = larger gas-phase ion size
[3] = ionization mode: ESI+, ion species: [M+H]+
[4] = ionization mode: ESI-, ion species: [M-H]-

reversed-phase LC retention time [1, 3] | collision cross section [2, 3] | SMILES | reversed-phase LC retention time [1, 4] | collision cross section [2, 4]
8.03 min | 235.31 Å² | CC1(C)CC(NC(=O)c2cccc(C(=O)NC3CC(C)(C)NC(C)(C)C3)c2)CC(C)(C)N1 [Nylostab S-EED] | 11.7 min | 232.92 Å²
7.93 min | 182.54 Å² | CC1COc2c(N3CCN(C)CC3)c(F)cc3c(=O)c(C(=O)O)cn1c23 (stereo not given) [Ofloxacin] | – | –
18.5 min | 177.48 Å² | CCCCCCCC/C=C\CCCCCCCC(N)=O [Oleic acid amide] | – | –
11.2 min | 179.62 Å² | COc1ccc2nc(SCc3ncc(C)c(OC)c3C)[nH]c2c1 [Omeprazole sulfide] | 13.9 min | 181.72 Å²
9.49 min | 173.57 Å² | Cc1nccn1CC1CCc2c(c3ccccc3n2C)C1=O (stereo not given) [Ondansetron] | – | –
– | – | CCCCCCCCCCC[C@@H](C[C@@H]1OC(=O)[C@H]1CCCCCC)OC(=O)[C@H](CC(C)C)NC=O [Orlistat] | 19.9 min | 232.61 Å²
10.7 min | 155.46 Å² | NC(=O)N1c2ccccc2CC(=O)c2ccccc21 [Oxcarbazepine] | – | –
13.4 min | 187.9 Å² | CCN(CC)CC#CCOC(=O)C(O)(c1ccccc1)C1CCCCC1 (stereo not given) [Oxybutynin] | – | –
8.42 min | 198.92 Å² | CN(C)[C@@H]1C(O)=C(C(N)=O)C(=O)[C@@]2(O)C(O)=C3C(=O)c4c(O)cccc4[C@@](C)(O)[C@H]3[C@H](O)[C@@H]12 [Oxytetracycline] | – | –
18.3 min | 193.35 Å² | CCCCCCCCCCCCCCCC(=O)NCCO [Palmitoylethanolamide] | – | –
– | – | Oc1c(Cl)c(Cl)c(Cl)c(Cl)c1Cl [Pentachlorophenol] | 13.8 min | 137.44 Å²
– | – | CCCC(C)C1(CC)C(=O)NC(=O)NC1=O (stereo not given) [Pentobarbital] | 12.2 min | 150.46 Å²
– | – | O=C(O)C(F)(F)C(F)(F)C(F)(F)OC(F)(F)F [Perfluoro-4-methoxybutanoic acid] | 11.4 min | 133.26 Å²
– | – | O=S(=O)(O)C(F)(F)C(F)(F)C(F)(F)C(F)(F)F [Perfluorobutanesulfonic acid] | 11.3 min | 132.6 Å²
– | – | O=C(O)C(F)(F)C(F)(F)C(F)(F)C(F)(F)C(F)(F)C(F)(F)C(F)(F)C(F)(F)C(F)(F)F [Perfluorodecanoic acid] | 16 min | 173.66 Å²
– | – | O=C(O)C(F)(F)C(F)(F)C(F)(F)C(F)(F)C(F)(F)C(F)(F)C(F)(F)C(F)(F)C(F)(F)C(F)(F)C(F)(F)F [Perfluorododecanoic acid] | 17 min | 191.62 Å²

reversed-phase LC retention time [1, 3] | collision cross section [2, 3] | SMILES | reversed-phase LC retention time [1, 4] | collision cross section [2, 4]
– | – | O=S(=O)(O)C(F)(F)C(F)(F)C(F)(F)C(F)(F)C(F)(F)C(F)(F)C(F)(F)F [Perfluoroheptanesulfonic acid] | 14.7 min | 159.45 Å²
– | – | O=C(O)C(F)(F)C(F)(F)C(F)(F)C(F)(F)C(F)(F)C(F)(F)F [Perfluoroheptanoic acid] | 13.8 min | 146.98 Å²
– | – | O=S(=O)(O)C(F)(F)C(F)(F)C(F)(F)C(F)(F)C(F)(F)C(F)(F)F [Perfluorohexanesulfonic acid] | 13.9 min | 150.32 Å²
– | – | O=C(O)C(F)(F)C(F)(F)C(F)(F)C(F)(F)C(F)(F)F [Perfluorohexanoic acid] | 12.6 min | 138.14 Å²
– | – | O=P(O)(O)C(F)(F)C(F)(F)C(F)(F)C(F)(F)C(F)(F)C(F)(F)F [Perfluorohexyl phosphonic acid] | 10.5 min | 152.3 Å²
– | – | O=C(O)C(F)(F)C(F)(F)C(F)(F)C(F)(F)C(F)(F)C(F)(F)C(F)(F)C(F)(F)F [Perfluorononanoic acid] | 15.4 min | 164.37 Å²
– | – | NS(=O)(=O)C(F)(F)C(F)(F)C(F)(F)C(F)(F)C(F)(F)C(F)(F)C(F)(F)C(F)(F)F [Perfluorooctanesulfonamide] | 15.7 min | 169.81 Å²
– | – | O=S(=O)(O)C(F)(F)C(F)(F)C(F)(F)C(F)(F)C(F)(F)C(F)(F)C(F)(F)C(F)(F)F [Perfluorooctanesulfonic acid] | 15.4 min | 169.04 Å²
– | – | O=C(O)C(F)(F)C(F)(F)C(F)(F)C(F)(F)C(F)(F)C(F)(F)C(F)(F)F [Perfluorooctanoic acid] | 14.7 min | 155.67 Å²
– | – | O=S(=O)(O)C(F)(F)C(F)(F)C(F)(F)C(F)(F)C(F)(F)F [Perfluoropentanesulfonic acid] | 12.8 min | 141.48 Å²
– | – | O=C(O)C(F)(F)C(F)(F)C(F)(F)C(F)(F)F [Perfluoropentanoic acid] | 10.9 min | 129.75 Å²
– | – | O=C(O)C(F)(F)C(F)(F)C(F)(F)C(F)(F)C(F)(F)C(F)(F)C(=O)O [Perfluorosuberic acid] | 6.68 min | 143.37 Å²
– | – | O=C(O)C(F)(F)C(F)(F)C(F)(F)C(F)(F)C(F)(F)C(F)(F)C(F)(F)C(F)(F)C(F)(F)C(F)(F)C(F)(F)C(F)(F)C(F)(F)F [Perfluorotetradecanoic acid] | 17.6 min | 209.23 Å²
– | – | O=C(O)C(F)(F)C(F)(F)C(F)(F)C(F)(F)C(F)(F)C(F)(F)C(F)(F)C(F)(F)C(F)(F)C(F)(F)F [Perfluoroundecanoic acid] | 16.5 min | 182.71 Å²
8.8 min | 138.2 Å² | Cc1cc(=O)n(-c2ccccc2)n1C [Phenazone] | – | –
7.17 min | 166.31 Å² | O=S(=O)(O)c1ccc2[nH]c(-c3ccccc3)nc2c1 [Phenylbenzimidazole sulfonic acid] | 8.23 min | 167.47 Å²

SMILES | reversed-phase LC retention time [1, 3] | collision cross section [2, 3] | reversed-phase LC retention time [1, 4] | collision cross section [2, 4]
CNC(=O)CSP(=O)(OC)OC [Omethoate] | 6.04 min | 135.65 Å² | – | –
CC(C)Oc1cc(-n2nc(C(C)(C)C)oc2=O)c(Cl)cc1Cl [Oxadiazone] | 16.9 min | 182.66 Å² | – | –
O=C1Nc2ccc(Cl)cc2C(c2ccccc2)=NC1O (stereo not given) [Oxazepam] | 13.1 min | 164.08 Å² | 13.4 min | 162.74 Å²
CCCC(Cn1cncn1)c1ccc(Cl)cc1Cl (stereo not given) [Penconazole] | 15.5 min | 166.33 Å² | – | –
O=C(Nc1ccccc1)N(Cc1ccc(Cl)cc1)C1CCCC1 [Pencycuron] | 16.1 min | 181.17 Å² | – | –
CCC(CC)Nc1c([N+](=O)[O-])cc(C)c(C)c1[N+](=O)[O-] [Pendimethalin] | 17.1 min | 160.71 Å² | – | –
COc1cnc(OC)n2nc(NS(=O)(=O)c3c(OCC(F)F)cccc3C(F)(F)F)nc12 [Penoxsulam] | 12.3 min | 196.63 Å² | – | –
CC(=O)CCCCn1c(=O)c2c(ncn2C)n(C)c1=O [Pentoxifylline] | 9.78 min | 160.14 Å² | – | –
CCOCCN(C(=O)CCl)C(=C(C)C)c1ccccc1 [Pethoxamid] | 14.9 min | 166.72 Å² | – | –
